This is an account of results in patent US5773239A, “Mannosidase inhibitors, process for their preparation and their use as therapeutic agents” (Mount Sinai Hospital Corporation., priority 1995, dated 1998).

In data set [1] the target is T1, rat liver Golgi α-mannosidase II (Rattus norvegicus, UniProt P28494).
T1 construct: The assay for rat liver Golgi α-mannosidase II; from tissue; host or cells: rat liver (Golgi)
T1 sequence (P28494 1-1148): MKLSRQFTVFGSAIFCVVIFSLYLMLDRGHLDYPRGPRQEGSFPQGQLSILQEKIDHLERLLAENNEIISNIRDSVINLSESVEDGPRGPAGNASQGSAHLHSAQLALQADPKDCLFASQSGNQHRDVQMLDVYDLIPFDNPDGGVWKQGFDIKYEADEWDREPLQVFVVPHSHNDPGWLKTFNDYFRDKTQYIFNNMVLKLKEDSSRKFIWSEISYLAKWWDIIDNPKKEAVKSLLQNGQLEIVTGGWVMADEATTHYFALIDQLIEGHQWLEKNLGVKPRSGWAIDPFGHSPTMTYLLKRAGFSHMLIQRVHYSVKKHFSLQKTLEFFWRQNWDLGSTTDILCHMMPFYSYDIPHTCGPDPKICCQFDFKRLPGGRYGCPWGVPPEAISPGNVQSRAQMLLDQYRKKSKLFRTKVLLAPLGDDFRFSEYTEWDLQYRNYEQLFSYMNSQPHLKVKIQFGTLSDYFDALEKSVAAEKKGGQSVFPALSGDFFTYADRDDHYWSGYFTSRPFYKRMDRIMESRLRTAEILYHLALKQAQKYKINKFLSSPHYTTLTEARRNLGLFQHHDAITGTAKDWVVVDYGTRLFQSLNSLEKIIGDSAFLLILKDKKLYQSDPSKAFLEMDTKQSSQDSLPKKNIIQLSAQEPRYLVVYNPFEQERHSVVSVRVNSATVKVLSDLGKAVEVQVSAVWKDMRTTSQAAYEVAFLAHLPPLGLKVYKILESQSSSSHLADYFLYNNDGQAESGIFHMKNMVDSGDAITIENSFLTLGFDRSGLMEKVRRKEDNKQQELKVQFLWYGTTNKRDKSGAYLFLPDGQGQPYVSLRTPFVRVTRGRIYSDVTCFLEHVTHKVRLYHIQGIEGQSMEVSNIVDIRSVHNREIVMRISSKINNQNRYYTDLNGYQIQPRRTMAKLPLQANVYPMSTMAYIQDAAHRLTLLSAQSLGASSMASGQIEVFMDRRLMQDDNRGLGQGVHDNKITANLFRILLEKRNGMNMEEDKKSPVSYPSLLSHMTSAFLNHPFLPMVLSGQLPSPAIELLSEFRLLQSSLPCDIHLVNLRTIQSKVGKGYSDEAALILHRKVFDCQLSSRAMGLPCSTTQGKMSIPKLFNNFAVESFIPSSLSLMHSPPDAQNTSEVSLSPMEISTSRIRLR
Description: Rat liver Golgi α-mannosidase II assay. The format is biochemical. As to conditions: for IC50: para-nitrophenyl α-mannose, pH 5.6, read-out: IC50 ManII; for Ratio: ratio of lyso to ManII IC50 values. The procedure:
The assay for rat liver Golgi α-mannosidase II contained 5 mM para-nitrophenylα-mannose, 40 mM sodium acetate pH 5.6, plus serially diluted test compouunds and mannosidase enzyme in a total volume of 50 ul, in 96 well plates. Plates were incubated 45 min at 37° C., then the reaction was stopped with 50 μl of 0.5M sodium carbonate. […] The lysosomal mannosidase was done in the same procedure but with 40 mM sodium acetate buffer pH 5.0. The numbers in the table are IC50 values in μM for inhibition of mannosidase activity.

The next data set has as its target lysosomal mannosidase. In words: Lysosomal mannosidase assay (pH 5.0). The class given is biochemical. As to conditions: para-nitrophenyl α-mannose. As for the experimental part: The assay for rat liver Golgi α-mannosidase II contained 5 mM para-nitrophenylα-mannose, 40 mM sodium acetate pH 5.6, plus serially diluted test compouunds and mannosidase enzyme in a total volume of 50 ul, in 96 well plates. Plates were incubated 45 min at 37° C., then the reaction was stopped with 50 μl of 0.5M sodium carbonate. The absorbance of reaction products was read at 405 nm. The lysosomal mannosidase was done in the same procedure but with 40 mM sodium acetate buffer pH 5.0. The numbers in the table are IC50 values in μM for inhibition of mannosidase activity.

Data set [2] concerns MDAY-D2 tumor cells. In words: L-PHA toxicity assay (inhibition of oligosaccharide processing in cells). The format is cell-based, mouse. The following applies: MDAY-D2 mouse lymphoma cells; read-out: IC50 for protection of cells from toxicity of LPHA lectin. As for the experimental part:
MDAY-D2 tumor cells were inoculated into 96 well micro-test plates at 2×10^4 cells/well, and containing serial dilutions of SW or SW analogues in MEM plus 10% FCS. The cells were cultured for 18-20 hr, followed by the addition of L-PHA at 25 μg/ml for an additional 24 hr. Cell proliferation was measured by adding 0.5 μCi/well of ^3 H-thymidine for 3-4 hr, harvesting onto glass fibre disks using a Titertek harvester and the disks were counted in a liquid scintillation counter. The apparent IC50 values for SW and the analogues are the drug concentrations showing 50% protection from L-PHA toxicity; that is 50% ^3 H-thymidine incorporated compared with cells grown in the absence of L-PHA. In experiments using the esterase inhibitor diethyl p-nitrophenyl phosphate, the compound was added to MDAY-D2 cells 4 hr prior to the α-mannosidase inhibitors and was present through-out the experiment.

Data set [3] is described as follows: Cellular toxicity / cell growth with compound alone (no L-PHA). The format is cell-based. The following applies: MDAY-D2 mouse lymphoma cells; read-out: Toxicity (cellular toxicity observed with compound alone).
The subject of data set [4] is MDAY-D2 tumor cells. The following applies: no drug; cited from earlier work.

Consider `OC[C@@H]1[C@H](O)[C@H](O)CN1Cc1ccccc1` [GD002], for which, in data set [1], the “selectivity Mannosidase II versus lysosomal mannosidase” value is reported as “favourable to Mannosidase II”, the IC50 came to 19 µM and the Ratio came out at 11.42. The IC50 at lysosomal mannosidase came out at 217 µM.

As for `CN1C[C@@H](O)[C@@H](O)[C@H]1CO` [GD003, N-methyl-DIL], the half-maximal inhibitory concentration (IC50) with MDAY-D2 tumor cells [2] stood at 312 µM; in data set [1] it was 26.3 µM; against lysosomal mannosidase, 13.6 µM. Further, the Concentration at which toxicity was seen with compound alone in data set [3] is over 5000 µM. For the same molecule, the Ratio in data set [1] is on record as 0.517.

For the molecule `CCCCN1C[C@@H](O)[C@@H](O)[C@H]1CO` [GD004, N-butyl-DIL], the IC50 was found to be 625 µM with MDAY-D2 tumor cells [2], 50.9 µM in data set [1] and 25.5 µM at lysosomal mannosidase. Also, the Concentration at which toxicity was seen with compound alone in data set [3] is over 2500 µM. In data set [1], the Ratio turned out to be 0.50.

Consider `CCN1C[C@@H](O)[C@@H](O)[C@H]1CO` [GD005, N-ethyl-DIL], for which the IC50 with MDAY-D2 tumor cells [2] stood at 312 µM; in data set [1], 33.9 µM; against lysosomal mannosidase it was 14.3 µM. Besides, in data set [3], the Concentration at which toxicity was seen with compound alone was over 5000 µM. Moreover, the Ratio in data set [1] is on record as 0.42.

In the case of `CCCN1C[C@@H](O)[C@@H](O)[C@H]1CO` [GD006, N-propyl-DIL], the IC50 in the data set on MDAY-D2 tumor cells [2] is 156 µM; in data set [1], 22.1 µM; at lysosomal mannosidase, 19.2 µM. Besides, the Concentration at which toxicity was seen with compound alone in data set [3] is over 2500 µM. Further, in data set [1], the Ratio came to 0.87.

Take `OC[C@@H]1[C@H](O)[C@H](O)CN1CC1CC1` [GD008, N-cyclo-propyl-methyl-DIL]: the IC50 amounted to 40 µM in the data set with MDAY-D2 tumor cells [2], 8.3 µM in data set [1] and 4.9 µM at lysosomal mannosidase. Also, the Concentration at which toxicity was seen with compound alone in data set [3] is over 2500 µM. In addition, in data set [1], the Ratio is reported as 0.59.

As for `CC(O)C1[C@H](O)[C@H](O)CN1CC1CC1` (stereo partly drawn) [GD013], in data set [1], the half-maximal inhibitory concentration (IC50) was found to be 114 µM and the Ratio is on record as 1.69. The molecule also returned an IC50 against lysosomal mannosidase of 193 µM.

`CC(O)C1[C@H](O)[C@H](O)CN1CC1CCCCC1` (stereo partly drawn) [GD014]: in data set [1], the concentration for half-maximal inhibition (IC50) is 140 µM and the Ratio stood at 1.12. The molecule further displayed a half-maximal inhibitory concentration (IC50) against lysosomal mannosidase of 157 µM.

For the molecule “L-PHA: toxic plant lectin (leukoagglutinin) purchased from Pharmacia”, in the data set on MDAY-D2 tumor cells [4], the “D50 for L-PHA toxicity” value was 5 µg/mL.

As usually defined, the IC50 is the concentration at which inhibition is half-maximal.
